Test results reported in the supplement of paper PMC10307832.

Assays:
Assay in all cases: relative viability (nuclei count vs DMSO), 5 days (fraction); higher = more cells survive
[1] = compound: C1CNCCC1C2=CC(=NN2)C3=CC=NC=C3 + CS(=O)(=O)CCNCc1ccc(-c2ccc3ncnc(Nc4ccc(OCc5cccc(F)c5)c(Cl)c4)c3c2)o1 [Lapatinib] (partner 2 µM)
How it was run: (§1)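 Dosing by pin tool came one day after lung cancer cell lines were seeded in 1536-well plates, using either one drug or a fixed anchor-drug dose plus five library-drug doses (not always all listed) in √10 steps. After 5 days, nuclei were counted on 4× images. Relative viability is treated-well nuclei count divided by vehicle-well nuclei count, and values are medians of duplicate plates.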

[2] = compound: O[C@H]1CC[C@H](Nc2ncc3nc(Nc4c(F)cc(F)cc4F)n([C@H]4CCOC4)c3n2)CC1 [Tanzisertib] + CS(=O)(=O)N1CCN(Cc2cc3nc(-c4cccc5[nH]ncc45)nc(N4CCOCC4)c3s2)CC1 [Pictilisib] (partner 1 µM)
How it was run: as §1

[3] = compound: C1CNCCC1C2=CC(=NN2)C3=CC=NC=C3 + CS(=O)(=O)N1CCN(Cc2cc3nc(-c4cccc5[nH]ncc45)nc(N4CCOCC4)c3s2)CC1 [Pictilisib] (partner 1 µM)
How it was run: as §1

[4] = compound: O[C@H]1CC[C@H](Nc2ncc3nc(Nc4c(F)cc(F)cc4F)n([C@H]4CCOC4)c3n2)CC1 [Tanzisertib] + Nc1ncn([C@H]2C[C@H](O)[C@@H](CO)O2)c(=O)n1 [Decitabine] (partner 2 µM)
How it was run: as §1

Cell Line	relative viability ([1]; first compound 0.08 µM)	relative viability ([1]; first compound 0.8 µM)	relative viability ([1]; first compound 2.53 µM)	relative viability ([1]; first compound 8 µM)	relative viability ([2]; first compound 0.08 µM)	relative viability ([2]; first compound 0.253 µM)	relative viability ([2]; first compound 0.8 µM)	relative viability ([2]; first compound 2.53 µM)	relative viability ([2]; first compound 8 µM)	relative viability ([3]; first compound 0.08 µM)	relative viability ([3]; first compound 0.8 µM)	relative viability ([3]; first compound 2.53 µM)	relative viability ([3]; first compound 8 µM)	relative viability ([4]; first compound 0.08 µM)	relative viability ([4]; first compound 0.253 µM)	relative viability ([4]; first compound 0.8 µM)	relative viability ([4]; first compound 2.53 µM)	relative viability ([4]; first compound 8 µM)
NCI-H2170	0.247	0.28	0.269	0.291	0.357	0.307	0.313	0.307	0.27	0.278	0.304	0.309	0.364	0.483	0.479	0.465	0.485	0.435
NCI-H2347	0.956	0.735	0.977	0.996	0.781	0.444	0.501	0.478	0.715	0.661	0.672	0.651	0.494	0.634	0.657	0.701	0.635	0.648
NCI-H2405	1.12	1.01	1.12	1.16	0.438	0.422	0.49	0.421	0.323	0.442	0.441	0.373	0.366	0.784	0.783	0.76	0.914	0.629
NCI-H3122	0.972	1.03	1.04	1.04	0.655	0.591	0.587	0.572	0.743	0.59	0.549	0.694	0.587	0.43	0.409	0.412	0.366	0.439
PC-3 [JPC-3]	0.426	0.446	0.499	0.471	0.741	0.823	0.688	0.673	0.577	0.719	0.721	0.738	0.766	0.836	0.787	0.803	0.801	0.737
PC-14	0.348	0.304	0.318	0.38	0.778	0.594	0.799	0.693	0.203	0.716	0.763	0.842	0.661	0.261	0.23	0.212	0.192	0.202
RERF-LC-KJ	0.784	0.835	0.843	0.85	0.634	0.606	0.571	0.511	0.458	0.458	0.619	0.715	0.625	0.75	0.771	0.705	0.688	0.628
SK-LU-1	0.944	0.799	0.849	0.814	0.58	0.539	0.565	0.633	0.527	0.515	0.499	0.686	0.644	0.707	0.796	0.623	0.616	0.647
SK-MES-1	0.423	0.381	0.439	0.421	0.378	0.338	0.366	0.34	0.245	0.397	0.344	0.404	0.319	0.365	0.409	0.364	0.34	0.327
